Source: patent US10844038B2, “1,2-dithiolane compounds useful in neuroprotection, autoimmune and cancer diseases and conditions” (SABILA BIOSCIENCES LLC, priority 2016, dated 2020)

Key:
FYN isoform (a) = FYN isoform (a) (Homo sapiens (Human), UniProt P06241); test: Kinase binding assay CaPBA; settings: read-out: IC50 Activity Levels Against FYN isoforms, YES1 and MEK5: FYN isoform (a)
From the text: 4. Kinase Binding Assay CaPBA:

FYN = FYN (Homo sapiens (Human), UniProt P06241); test: Radiometric 33PanQinase assay (FlashPlate-based Protein Kinase Assay); assay type: biochemical; settings: at app. ATP Km, read-out: IC50 Activity Levels Against FYN Kinase: FYN
Chain of FYN (P06241 whole entry): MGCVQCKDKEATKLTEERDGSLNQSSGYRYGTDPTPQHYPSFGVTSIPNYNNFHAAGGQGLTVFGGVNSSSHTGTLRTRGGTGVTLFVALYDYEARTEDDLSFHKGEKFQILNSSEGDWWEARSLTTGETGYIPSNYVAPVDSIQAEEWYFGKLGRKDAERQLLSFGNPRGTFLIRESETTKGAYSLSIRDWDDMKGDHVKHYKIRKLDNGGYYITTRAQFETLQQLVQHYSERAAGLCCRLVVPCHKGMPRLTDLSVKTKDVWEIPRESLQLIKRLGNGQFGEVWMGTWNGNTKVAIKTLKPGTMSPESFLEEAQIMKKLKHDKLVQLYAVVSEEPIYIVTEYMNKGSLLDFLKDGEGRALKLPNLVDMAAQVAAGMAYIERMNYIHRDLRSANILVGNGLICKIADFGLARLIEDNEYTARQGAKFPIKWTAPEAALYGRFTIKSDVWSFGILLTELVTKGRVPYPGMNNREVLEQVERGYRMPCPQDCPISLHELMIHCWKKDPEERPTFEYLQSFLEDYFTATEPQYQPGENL
From the text: 5. Radiometric ^33PanQinase^R Assay:
This assay referred to as FlashPlate-based Protein Kinase Assay uses recombinant protein kinase and ATP concentration corresponding to the apparent ATP-Km of the respective kinase. Testing of inhibitors is done at app. ATP Km.

YES1 = YES1 (Homo sapiens (Human), UniProt P07947); test: Rabbit reticulocyte lysate assay (KinaseSeeker competition binding); settings: read-out: IC50 Activity Levels Against SRC Family Kinases: YES1
Chain of YES1 (P07947 whole entry): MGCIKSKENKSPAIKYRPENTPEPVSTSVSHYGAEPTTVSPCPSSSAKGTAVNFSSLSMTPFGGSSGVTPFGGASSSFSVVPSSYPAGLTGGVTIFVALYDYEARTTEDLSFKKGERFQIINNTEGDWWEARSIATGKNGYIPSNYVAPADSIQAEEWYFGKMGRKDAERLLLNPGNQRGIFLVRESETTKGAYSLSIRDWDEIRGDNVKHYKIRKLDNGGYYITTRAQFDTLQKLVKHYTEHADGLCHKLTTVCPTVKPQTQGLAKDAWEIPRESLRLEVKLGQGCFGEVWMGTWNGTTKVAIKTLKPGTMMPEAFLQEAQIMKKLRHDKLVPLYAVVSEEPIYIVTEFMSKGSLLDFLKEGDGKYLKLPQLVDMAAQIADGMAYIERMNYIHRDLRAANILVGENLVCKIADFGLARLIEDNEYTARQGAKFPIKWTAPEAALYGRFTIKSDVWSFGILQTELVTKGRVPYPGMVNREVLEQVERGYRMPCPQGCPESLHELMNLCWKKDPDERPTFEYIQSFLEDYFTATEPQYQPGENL
Experimental: (§1) 1. Rabbit Reticulocyte Lysate Assay Design:
(§2) KinaseSeeker is a homogeneous competition binding assay where the displacement of an active site dependent probe by an inhibitor is measured by a change in luminescence signal. Luminescence readout translates into a highly sensitive and robust assay with low background and minimal interference from test compounds.
(§3) 10 mM stock solutions of test compounds were serially diluted in DMSO to make assay stocks. Prior to initiating IC50 determinations, the test compounds were evaluated for false positive against split-luciferase.
(§4) Each test compound was screened in duplicate against target kinase at 7 different concentrations. For kinase assays, Cfluc-kinase was translated along with Fos-Nfluc using a cell-free system (rabbit reticulocyte lysate) at 30° C. for 90 min. 24 uL aliquot of this lysate containing either 1 uL of DMSO (for no-inhibitor control) or compound solution in DMSO was incubated for 30 minutes at room temperature followed by 1 hour in presence of a kinase specific probe. 80 uL of luciferin assay reagent was added to each solution and luminescence was immediately measured on a luminometer.
(§5) The % Inhibition and % Activity Remaining was calculated using the following equation: % Inhibition=[(ALUControl−ALUSample)/ALUControl]×100 % Activity Remaining=100−% Inhibition
(§6) The % Activity was plotted against compound concentration and the IC50 was determined for each compound using a 7-point curve (Jester, B. W.; et. al. J. Am. Chem. Soc. 2010, 132, 11727-11735. Jester, B. W., et. al. J. Med. Chem. 2012, 55, 1526-1537). Biological activity of representative compounds of the disclosure are described in Table 5.

FGR = FGR (Homo sapiens (Human), UniProt P09769); test: as above; settings: read-out: IC50 Activity Levels Against SRC Family Kinases: FGR
Chain of FGR (P09769 whole entry): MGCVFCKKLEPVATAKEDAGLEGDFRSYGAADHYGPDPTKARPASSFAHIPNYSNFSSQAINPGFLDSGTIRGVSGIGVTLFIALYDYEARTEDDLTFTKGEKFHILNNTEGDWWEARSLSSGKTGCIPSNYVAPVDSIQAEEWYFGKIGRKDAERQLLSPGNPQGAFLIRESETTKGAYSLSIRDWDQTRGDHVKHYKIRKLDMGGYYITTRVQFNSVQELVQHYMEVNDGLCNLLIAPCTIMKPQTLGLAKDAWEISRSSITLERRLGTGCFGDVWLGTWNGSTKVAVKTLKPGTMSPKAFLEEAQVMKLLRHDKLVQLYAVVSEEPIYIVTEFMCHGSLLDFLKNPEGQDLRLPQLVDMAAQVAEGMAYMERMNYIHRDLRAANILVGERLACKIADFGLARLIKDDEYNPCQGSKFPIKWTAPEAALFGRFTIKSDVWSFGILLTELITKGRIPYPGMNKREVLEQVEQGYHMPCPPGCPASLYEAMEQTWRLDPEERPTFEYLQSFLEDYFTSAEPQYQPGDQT
Experimental: as §1, §2, §3, §4, §5, §6

FRK = FRK (Homo sapiens (Human), UniProt P42685); test: Radioisotope filter binding assay; assay type: biochemical; settings: read-out: IC50 Activity Levels Against FRK Family Kinases: FRK
Method in brief: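 Kinase activity was measured as 33P transfer from [γ-33P]ATP (10 μCi/μL specific activity) to substrate in 20 mM Hepes pH 7.5, 10 mM MgCl2, 1 mM EGTA, 0.02% Brij35, 0.02 mg/ml BSA, 0.1 mM Na3VO4, 2 mM DTT, 1% DMSO. Compound was preincubated 20 min, reaction ran 2 h at room temperature.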

MEK2 = MEK2 (Homo sapiens (Human), UniProt P36507); test: KINOMEscan competition binding assay (Kd); settings: read-out: Kd Values Against MEK Kinases Isoforms: MEK2
Chain of MEK2 (P36507 whole entry, canonical isoform): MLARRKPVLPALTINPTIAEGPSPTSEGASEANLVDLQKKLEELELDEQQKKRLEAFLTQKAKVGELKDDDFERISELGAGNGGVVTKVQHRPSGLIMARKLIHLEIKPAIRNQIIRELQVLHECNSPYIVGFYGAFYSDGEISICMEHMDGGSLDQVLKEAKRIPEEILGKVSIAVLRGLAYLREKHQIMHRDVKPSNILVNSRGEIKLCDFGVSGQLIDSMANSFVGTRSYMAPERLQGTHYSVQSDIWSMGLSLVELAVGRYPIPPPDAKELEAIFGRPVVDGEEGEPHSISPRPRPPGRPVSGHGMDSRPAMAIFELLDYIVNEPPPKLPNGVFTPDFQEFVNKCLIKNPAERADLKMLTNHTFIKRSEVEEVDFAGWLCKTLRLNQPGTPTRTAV

MEK3 = MEK3 (Homo sapiens (Human), UniProt P46734); test: KINOMEscan competition binding assay (Kd); settings: read-out: Kd Values Against MEK Kinases Isoforms: MEK3
Chain of MEK3 (P46734 whole entry, canonical isoform): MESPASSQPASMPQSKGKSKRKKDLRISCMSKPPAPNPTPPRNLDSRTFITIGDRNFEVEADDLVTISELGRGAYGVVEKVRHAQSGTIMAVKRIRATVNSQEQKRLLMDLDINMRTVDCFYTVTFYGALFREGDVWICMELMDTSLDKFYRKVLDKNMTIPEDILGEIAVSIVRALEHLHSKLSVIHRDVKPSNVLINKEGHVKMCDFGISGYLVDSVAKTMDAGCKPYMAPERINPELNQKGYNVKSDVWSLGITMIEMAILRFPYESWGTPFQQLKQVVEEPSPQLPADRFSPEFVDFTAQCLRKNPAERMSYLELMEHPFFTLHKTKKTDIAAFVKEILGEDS

BRAF (V600E) = BRAF (V600E) (Homo sapiens (Human), UniProt P15056, V600E); test: KINOMEscan competition binding assay (Kd); settings: read-out: Kd Values Against MAPK Pathway Kinases: BRAF (V600E)
Chain of BRAF (V600E) (P15056 whole entry V600E): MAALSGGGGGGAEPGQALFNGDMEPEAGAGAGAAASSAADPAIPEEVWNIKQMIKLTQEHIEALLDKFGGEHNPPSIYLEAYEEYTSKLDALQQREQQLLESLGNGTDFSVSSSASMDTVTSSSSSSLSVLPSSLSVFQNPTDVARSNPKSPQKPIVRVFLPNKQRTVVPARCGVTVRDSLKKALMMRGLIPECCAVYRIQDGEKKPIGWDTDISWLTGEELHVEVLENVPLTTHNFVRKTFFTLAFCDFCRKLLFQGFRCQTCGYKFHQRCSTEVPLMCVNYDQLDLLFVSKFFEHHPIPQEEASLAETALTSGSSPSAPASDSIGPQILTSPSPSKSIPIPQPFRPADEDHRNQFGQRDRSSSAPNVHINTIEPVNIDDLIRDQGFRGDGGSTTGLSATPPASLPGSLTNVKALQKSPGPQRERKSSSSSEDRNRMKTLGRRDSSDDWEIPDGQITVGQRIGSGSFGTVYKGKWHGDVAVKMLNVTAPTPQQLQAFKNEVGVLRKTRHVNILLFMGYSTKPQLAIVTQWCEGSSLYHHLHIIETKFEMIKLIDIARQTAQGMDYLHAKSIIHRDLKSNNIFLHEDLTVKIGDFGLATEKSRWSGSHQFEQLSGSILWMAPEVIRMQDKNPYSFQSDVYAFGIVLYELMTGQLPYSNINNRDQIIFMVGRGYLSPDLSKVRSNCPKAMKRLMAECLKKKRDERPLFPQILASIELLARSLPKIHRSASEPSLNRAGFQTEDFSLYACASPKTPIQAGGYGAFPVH

ERK2 = ERK2 (Homo sapiens (Human), UniProt P28482); test: KINOMEscan competition binding assay (Kd); settings: read-out: Kd Values Against MAPK Pathway Kinases: ERK2
Chain of ERK2 (P28482 whole entry): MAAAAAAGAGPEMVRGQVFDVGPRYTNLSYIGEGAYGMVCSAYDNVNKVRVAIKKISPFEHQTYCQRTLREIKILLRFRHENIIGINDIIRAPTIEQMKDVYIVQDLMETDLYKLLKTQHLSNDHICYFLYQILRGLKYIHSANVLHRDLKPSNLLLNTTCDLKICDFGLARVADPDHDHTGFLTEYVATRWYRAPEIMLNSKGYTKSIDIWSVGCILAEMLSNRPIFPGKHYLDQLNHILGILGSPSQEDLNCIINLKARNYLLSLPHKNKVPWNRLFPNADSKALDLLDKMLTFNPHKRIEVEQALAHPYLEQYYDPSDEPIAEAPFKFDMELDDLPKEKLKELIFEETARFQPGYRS

ERK1 = ERK1 (Homo sapiens (Human), UniProt P27361); test: KINOMEscan competition binding assay (Kd); settings: read-out: Kd Values Against MAPK Pathway Kinases: ERK1
Chain of ERK1 (P27361 whole entry, canonical isoform): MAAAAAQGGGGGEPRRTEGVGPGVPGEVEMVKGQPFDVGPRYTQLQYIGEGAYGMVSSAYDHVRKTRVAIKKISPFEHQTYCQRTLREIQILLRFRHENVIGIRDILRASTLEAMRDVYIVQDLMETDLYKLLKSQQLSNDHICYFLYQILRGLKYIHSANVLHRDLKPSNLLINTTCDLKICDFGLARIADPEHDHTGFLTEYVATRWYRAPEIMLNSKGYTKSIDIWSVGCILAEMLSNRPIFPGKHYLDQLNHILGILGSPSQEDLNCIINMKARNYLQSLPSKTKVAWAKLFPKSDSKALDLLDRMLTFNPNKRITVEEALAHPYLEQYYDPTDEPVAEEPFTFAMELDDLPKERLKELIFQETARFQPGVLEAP

MEK4 = MEK4 (Homo sapiens (Human), UniProt P45985); test: KINOMEscan competition binding assay (Kd); settings: read-out: Kd Values Against MEK Kinases Isoforms: MEK4
Chain of MEK4 (P45985 whole entry, canonical isoform): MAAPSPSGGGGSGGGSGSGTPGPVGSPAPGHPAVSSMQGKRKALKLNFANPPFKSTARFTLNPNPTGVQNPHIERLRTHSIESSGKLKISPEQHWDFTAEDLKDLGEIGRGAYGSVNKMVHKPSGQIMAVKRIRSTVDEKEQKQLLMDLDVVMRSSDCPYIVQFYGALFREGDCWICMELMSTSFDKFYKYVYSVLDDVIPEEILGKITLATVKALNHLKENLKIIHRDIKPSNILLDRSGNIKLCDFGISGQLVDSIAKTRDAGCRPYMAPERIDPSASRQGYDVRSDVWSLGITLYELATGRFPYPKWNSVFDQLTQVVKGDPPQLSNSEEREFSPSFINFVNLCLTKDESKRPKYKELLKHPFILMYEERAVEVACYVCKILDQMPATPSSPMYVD

Chain of FYN isoform (a) (P06241 whole entry, canonical isoform): as the sequence (P06241 whole entry) above

| IC50 (FYN isoform (a)) [nM] | IC50 (FYN) [nM] | IC50 (YES1) [nM] | IC50 (FGR) [nM] | IC50 (FRK) [nM] | Kd (MEK2) [nM] | Kd (MEK3) [nM] | Kd (BRAF (V600E)) [nM] | Kd (ERK2) [nM] | Kd (ERK1) [nM] | Kd (MEK4) [nM] | Compound |
| --- | --- | --- | --- | --- | --- | --- | --- | --- | --- | --- | --- |
| 5 to 99 | – | – | – | – | – | – | – | – | – | – | Nc1ncnc2c1c(-c1ccc(Oc3ccccc3)cc1)nn2C[C@@H]1SSC[C@H]1O [43 A.] |
| 5 to 99 | 5 to 99 | 100 to 999 | 100 to 999 | 5 to 99 | – | – | – | – | – | – | Nc1ncnc2c1c(-c1ccc(Oc3ccccc3)cc1)nn2C[C@H]1SSC[C@@H]1O [43 B.] |
| – | 5 to 99 | 5 to 99 | 100 to 999 | – | 100 to 999 | 1000 to 10000 | 1000 to 10000 | 1000 to 10000 | 1000 to 10000 | 1000 to 10000 | Nc1ncnc2c1c(-c1ccc(Oc3ccccc3)cc1)nn2C[C@H]1SSC[C@H]1O [46 B.] |
